Results as given in PubChem BioAssay (NCI).
“And” between values parts separate entries of the source, which are not always exact repeats. Equal entries are not always repeated.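 Interpolation was linear, between the two tested concentrations surrounding the appropriate level; five concentrations were tested over 48 hours in 96-well plates. GI50 = concentration required for 50% inhibition of growth. At the TGI there is no net growth.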 Where a SMILES comes first, the peptide text is derived from it. The star is where a group is joined. X36 = O=C(c1ccc(-c2ccc(Cl)cc2Cl)o1)*

How the values were obtained:
Test in all cases: inhibition of tumour cell growth, NCI panel, 48 h
A549 NSCLC = test system: A549 NSCLC
COLO 205 colon = test system: COLO 205 colon
HS 578T breast = test system: HS 578T breast
NCI-H23 lung = test system: NCI-H23 lung
SF-268 CNS = test system: SF-268 CNS
SF-295 CNS = test system: SF-295 CNS
SK-MEL-28 melanoma = test system: SK-MEL-28 melanoma
SNB-19 CNS = test system: SNB-19 CNS
TK-10 renal = test system: TK-10 renal
UACC-257 melanoma = test system: UACC-257 melanoma

CCC1(C(=O)OC(C)(C)C)OC12C(C)CCCC2C (stereo not given)
TGI (A549 NSCLC): > 100 µM
TGI (COLO 205 colon): 63 µM
TGI (HS 578T breast): > 100 µM
TGI (NCI-H23 lung): > 100 µM
TGI (SF-268 CNS): > 100 µM
TGI (SF-295 CNS): > 100 µM
TGI (SK-MEL-28 melanoma): > 100 µM
TGI (SNB-19 CNS): > 100 µM
TGI (TK-10 renal): > 100 µM
TGI (UACC-257 melanoma): > 100 µM

Cc1ccc(S(=O)(=O)OCC(=O)O)cc1
TGI (A549 NSCLC): > 100 µM
TGI (HS 578T breast): > 100 µM
TGI (NCI-H23 lung): > 100 µM
TGI (SF-268 CNS): > 100 µM
TGI (SF-295 CNS): > 100 µM
TGI (SK-MEL-28 melanoma): > 100 µM
TGI (SNB-19 CNS): > 100 µM
TGI (TK-10 renal): > 100 µM
TGI (UACC-257 melanoma): > 100 µM

C[C@H](N)C(=O)Nc1ccc(-c2nc3ccccc3s2)cc1
TGI (A549 NSCLC): 29.6 µM
TGI (COLO 205 colon): 33.1 µM
TGI (HS 578T breast): > 100 µM
TGI (NCI-H23 lung): > 100 µM
TGI (SF-268 CNS): > 100 µM
TGI (SF-295 CNS): 33.9 µM
TGI (SK-MEL-28 melanoma): 32.5 µM
TGI (SNB-19 CNS): 49.6 µM
TGI (TK-10 renal): 60.8 µM
TGI (UACC-257 melanoma): > 100 µM

Cc1cn(C2CC(n3cc(Cn4cc(Br)c(=O)[nH]c4=O)nn3)C(CO)O2)c(=O)[nH]c1=O (stereo not given)
TGI (A549 NSCLC): > 100 µM
TGI (COLO 205 colon): > 100 µM
TGI (HS 578T breast): > 100 µM
TGI (NCI-H23 lung): > 100 µM
TGI (SF-268 CNS): > 100 µM
TGI (SF-295 CNS): > 100 µM
TGI (SK-MEL-28 melanoma): > 100 µM
TGI (SNB-19 CNS): > 100 µM
TGI (TK-10 renal): > 100 µM
TGI (UACC-257 melanoma): > 100 µM

Cc1ccn2c(=O)cc(-c3ccccc3)nc2c1
TGI (A549 NSCLC): > 100 µM
TGI (COLO 205 colon): > 100 µM
TGI (HS 578T breast): > 100 µM
TGI (NCI-H23 lung): > 100 µM
TGI (SF-268 CNS): > 100 µM
TGI (SF-295 CNS): > 100 µM
TGI (SK-MEL-28 melanoma): > 100 µM
TGI (SNB-19 CNS): > 100 µM
TGI (TK-10 renal): > 100 µM
TGI (UACC-257 melanoma): > 100 µM

COc1cc(CNc2ccc(SC)cc2)cc(OC)c1OC
TGI (A549 NSCLC): > 100 µM
TGI (COLO 205 colon): 12.8 µM and 12.4 µM
TGI (HS 578T breast): > 77.7 µM
GI50 (NCI-H23 lung): 14.6 µM and 6.14 µM
TGI (NCI-H23 lung): 44 µM and 46.7 µM
GI50 (SF-268 CNS): 19.9 µM and 7.47 µM
TGI (SF-268 CNS): > 100 µM and 69.3 µM
GI50 (SF-295 CNS): 8.24 µM and 3.57 µM
TGI (SF-295 CNS): 53.8 µM and 22.1 µM
GI50 (SK-MEL-28 melanoma): 23.7 µM and 5.71 µM
TGI (SK-MEL-28 melanoma): 99.4 µM and > 76.9 µM
GI50 (SNB-19 CNS): 25.4 µM and 10.1 µM
TGI (SNB-19 CNS): > 100 µM
GI50 (TK-10 renal): 41 µM and 16.7 µM
TGI (TK-10 renal): > 93.3 µM and 77.5 µM
GI50 (UACC-257 melanoma): 24.9 µM and 9.7 µM
TGI (UACC-257 melanoma): > 91.7 µM and 41.8 µM

CCOC(=O)c1ccc(N2C(=S)N(C(=O)c3ccccc3)C(=Nc3ccccc3)C2=Nc2ccccc2)cc1
TGI (A549 NSCLC): > 100 µM
TGI (HS 578T breast): > 100 µM
TGI (NCI-H23 lung): > 100 µM
TGI (SF-268 CNS): > 100 µM
TGI (SF-295 CNS): > 100 µM
TGI (SK-MEL-28 melanoma): > 100 µM
TGI (SNB-19 CNS): > 100 µM
TGI (TK-10 renal): > 100 µM
TGI (UACC-257 melanoma): > 100 µM

Cc1ccc2nc(Cl)c(/C=N/N3C(=O)/C(=C/c4ccccc4S)N=C3c3ccccc3)cc2c1
TGI (A549 NSCLC): > 100 µM
TGI (COLO 205 colon): > 100 µM
TGI (HS 578T breast): 58 µM
TGI (SF-268 CNS): > 100 µM
TGI (SF-295 CNS): 84 µM
TGI (SK-MEL-28 melanoma): > 100 µM
TGI (SNB-19 CNS): > 100 µM
TGI (TK-10 renal): > 100 µM
TGI (UACC-257 melanoma): > 100 µM

CCC(C)C(NC(=O)CNC(=O)C(Cc1ccccc1)NC(=O)C1CCCN1C(=O)c1ccc(-c2ccc(Cl)cc2Cl)o1)C(=O)OC (stereo not given) (X36-PFGI-OMe; configuration not given here)
TGI (A549 NSCLC): > 100 µM
TGI (COLO 205 colon): > 100 µM
TGI (HS 578T breast): > 100 µM
TGI (NCI-H23 lung): > 100 µM
TGI (SF-268 CNS): > 100 µM
TGI (SF-295 CNS): > 100 µM
TGI (SK-MEL-28 melanoma): > 100 µM
TGI (SNB-19 CNS): > 100 µM
TGI (TK-10 renal): > 100 µM
TGI (UACC-257 melanoma): 67.2 µM

NC(=O)NNC(=O)c1nc[nH]c1[N+](=O)[O-]
TGI (A549 NSCLC): > 100 µM
TGI (COLO 205 colon): > 100 µM
TGI (HS 578T breast): > 100 µM
TGI (NCI-H23 lung): > 100 µM
TGI (SF-268 CNS): > 100 µM
TGI (SK-MEL-28 melanoma): > 100 µM
TGI (TK-10 renal): > 100 µM
TGI (UACC-257 melanoma): > 100 µM

O=C1c2ccccc2-c2nc(-c3cccc([N+](=O)[O-])c3)nnc21
TGI (A549 NSCLC): 98.6 µM
TGI (COLO 205 colon): 12.6 µM
TGI (HS 578T breast): > 100 µM
TGI (NCI-H23 lung): 50.5 µM
TGI (SF-268 CNS): > 100 µM
TGI (SF-295 CNS): > 100 µM
TGI (SNB-19 CNS): > 100 µM
TGI (TK-10 renal): 39.5 µM
TGI (UACC-257 melanoma): 13.3 µM

C/C=C/C(O)P1(=O)N(Cc2ccccc2)[C@@H]2CCCC[C@H]2N1Cc1ccccc1 (stereo not given in full)
TGI (A549 NSCLC): > 25 µM
TGI (COLO 205 colon): > 25 µM
TGI (HS 578T breast): > 25 µM
TGI (NCI-H23 lung): > 25 µM
TGI (SF-268 CNS): > 25 µM
TGI (SF-295 CNS): > 25 µM
TGI (SK-MEL-28 melanoma): > 25 µM
TGI (SNB-19 CNS): > 25 µM
TGI (TK-10 renal): > 25 µM
TGI (UACC-257 melanoma): > 25 µM

CC(=O)O[C@H]1C#C/C=C\C#CC[C@@H]2C(=O)N[C@@H]12
TGI (A549 NSCLC): > 100 µM
TGI (COLO 205 colon): > 100 µM
TGI (HS 578T breast): > 86.2 µM
TGI (NCI-H23 lung): 60.9 µM
TGI (SF-268 CNS): > 70.2 µM
TGI (SF-295 CNS): > 100 µM
TGI (SK-MEL-28 melanoma): > 100 µM
TGI (SNB-19 CNS): > 100 µM
TGI (TK-10 renal): > 100 µM
TGI (UACC-257 melanoma): > 100 µM

O=C(Cc1ccccc1)NN1C(=O)/C(=C\c2cccc(O)c2)SC1=Nc1ccccc1
TGI (A549 NSCLC): > 100 µM
TGI (COLO 205 colon): > 100 µM
TGI (HS 578T breast): > 100 µM
TGI (NCI-H23 lung): > 100 µM
TGI (SF-268 CNS): > 100 µM
TGI (SF-295 CNS): > 100 µM
TGI (SK-MEL-28 melanoma): > 100 µM
TGI (SNB-19 CNS): > 100 µM
TGI (TK-10 renal): > 100 µM
TGI (UACC-257 melanoma): > 100 µM

CCN1C(=O)C(=C/C=C/c2ccc([N+](=O)[O-])cc2)C(=O)N(CC)C1=S
TGI (A549 NSCLC): > 100 µM
TGI (COLO 205 colon): > 100 µM
TGI (HS 578T breast): 55.1 µM
TGI (NCI-H23 lung): 32.8 µM
TGI (SF-268 CNS): 53 µM
TGI (SF-295 CNS): > 100 µM
TGI (SK-MEL-28 melanoma): 31.9 µM
TGI (SNB-19 CNS): > 100 µM
TGI (TK-10 renal): 37.8 µM
TGI (UACC-257 melanoma): 32.2 µM

CCC1(C)N=C(c2cnccn2)NN1c1ccc(Cl)cc1 (stereo not given)
TGI (A549 NSCLC): > 100 µM
TGI (COLO 205 colon): > 100 µM
TGI (HS 578T breast): > 100 µM
TGI (NCI-H23 lung): > 100 µM
TGI (SF-268 CNS): > 100 µM
TGI (SF-295 CNS): > 100 µM
TGI (SK-MEL-28 melanoma): > 100 µM
TGI (SNB-19 CNS): > 100 µM
TGI (TK-10 renal): > 100 µM
TGI (UACC-257 melanoma): 99.3 µM

CC1(CF)SCc2nc3ccccc3n21 (stereo not given)
TGI (A549 NSCLC): > 100 µM
TGI (COLO 205 colon): > 100 µM
TGI (HS 578T breast): > 100 µM
TGI (NCI-H23 lung): > 100 µM
TGI (SF-268 CNS): > 100 µM
TGI (SF-295 CNS): > 100 µM
TGI (SK-MEL-28 melanoma): > 100 µM
TGI (SNB-19 CNS): > 100 µM
TGI (TK-10 renal): > 100 µM
TGI (UACC-257 melanoma): > 100 µM

Cc1ccc2c(=O)cc(-c3cccs3)[nH]c2n1
TGI (A549 NSCLC): > 100 µM
TGI (COLO 205 colon): 25.2 µM
TGI (HS 578T breast): > 71.4 µM
TGI (NCI-H23 lung): > 63.6 µM
TGI (SF-268 CNS): > 100 µM
TGI (SF-295 CNS): > 69.6 µM
TGI (SK-MEL-28 melanoma): > 100 µM
TGI (SNB-19 CNS): 82.2 µM
TGI (TK-10 renal): > 100 µM
TGI (UACC-257 melanoma): > 100 µM

CC1Cn2c(nc3ccccc32)NC1=O (stereo not given)
TGI (A549 NSCLC): > 100 µM
TGI (COLO 205 colon): > 100 µM
TGI (HS 578T breast): > 100 µM
TGI (NCI-H23 lung): > 100 µM
TGI (SF-268 CNS): > 100 µM
TGI (SF-295 CNS): > 100 µM
TGI (SNB-19 CNS): > 100 µM
TGI (TK-10 renal): > 100 µM
TGI (UACC-257 melanoma): > 100 µM

CC1=COC(C)(C=C(C#N)C#N)CC1 (stereo not given)
TGI (A549 NSCLC): > 100 µM
TGI (COLO 205 colon): > 100 µM
TGI (HS 578T breast): 51.3 µM
TGI (NCI-H23 lung): > 100 µM
TGI (SF-268 CNS): > 100 µM
TGI (SF-295 CNS): > 100 µM
TGI (SK-MEL-28 melanoma): > 100 µM
TGI (SNB-19 CNS): > 100 µM
TGI (TK-10 renal): > 100 µM
TGI (UACC-257 melanoma): > 100 µM

COc1ccc(/C=N/N=C(\N)NO)c(O)c1
TGI (A549 NSCLC): > 10 µM
TGI (COLO 205 colon): > 10 µM
TGI (HS 578T breast): > 10 µM
TGI (NCI-H23 lung): > 10 µM
TGI (SF-268 CNS): > 10 µM
TGI (SF-295 CNS): > 10 µM
TGI (SK-MEL-28 melanoma): > 10 µM
TGI (SNB-19 CNS): > 10 µM
TGI (TK-10 renal): > 10 µM
TGI (UACC-257 melanoma): > 10 µM
